Data published in patent US12439944B2, “3-hydroxybutyrate compounds for use in reducing liver fat” (TDeltaS Limited, priority 2017, dated 2025).

How the values were obtained:
[1] = Blood (R)-3-hydroxybutyrate level after oral administration; type: in vivo; conditions: for circulating levels of (R)-3-hydroxybutyrate in the blood: general statement; for uptake in the gut: upon consumption of a drink
Protocol: At a dose of 1 g/kg of body weight of the subject, the blood (R)-3-hydroxybutyrate concentration is suitably at least 4 mM, preferably 5 mM. Upon oral administration of monoester of 1.5 g/kg of body weight of the subject, the blood (R)-3-hydroxybutyrate concentration is suitably at least 7 mM, preferably at least 8 mM, especially at least 9 mM. A dosing regime comprises multiple drinks consumed separately.
Blood levels of (R)-3-hydroxybutyrate may be determined by commercially available testing kits, for example, (R)-3-hydroxybutyrate can be measured on whole blood using a handheld monitor and reagent strips (Precision Xtra, Abbott Diabetes Care, UK).

[2] = Body weight change after five-day ketone ester drink regime; type: in vivo, human; conditions: 393 mg/kg body weight 3 times per day for 5 days
Protocol: Three obese subjects (BMI 33±3 kg/m^2) and seven lean subjects (BMI 23±2 kg/m^2), matched for age, gender, diabetes duration, treatment and HBA1c, underwent a ^1H-MRS scan for quantification of liver steatosis. All subjects were weighed and underwent a treatment regime for five days in which each subject consumed three drinks per day containing 0.393 g/kg body weight of (R)-3-hydroxybutyrate-R-1,3-butanediol monoester, made up to a final volume of 3.3 ml/kg body weight. […] The subjects were not asked to change their normal diet, but did keep diet diaries. Subjects lost 1.3 kg over the five-day period, irrespective of their starting body weight. The weight loss in 7 lean subjects (FIG. 1a) and 3 obese subjects (FIG. 1b) was the same, 1.3 kg, after drinking 393 mg/kg body weight (R)-3-hydroxybutyrate-(R)-1,3 butanediol monoester (ΔG®) 3 times per day for 5 days.

liver fat [3] = experiment: 1H Magnetic Resonance Spectroscopy (MRS) of liver, quantification of liver fat; type: in vivo, human; conditions: for liver fat (hepatic triglyceride relative to water): lean subjects; for liver triglyceride level: obese subjects
Protocol: Three obese subjects (BMI 33±3 kg/m^2) and seven lean subjects (BMI 23±2 kg/m^2), matched for age, gender, diabetes duration, treatment and HBA1c, underwent a ^1H-MRS scan for quantification of liver steatosis. All subjects were weighed and underwent a treatment regime for five days in which each subject consumed three drinks per day containing 0.393 g/kg body weight of (R)-3-hydroxybutyrate-R-1,3-butanediol monoester, made up to a final volume of 3.3 ml/kg body weight. […] Liver ^1H-MRS was performed on each of the subjects at the beginning and end of the 5 days to determine the change in liver fat. The ^1H-MRS measurements were carried out on a 3 T Siemens Tim Trio using a whole-body coil and 6-channel anterior plus 24-channel posterior phased-array coils for signal receiving. To obtain hepatic ^1H-MRS, an 8-ml voxel (2×2×2) was positioned in the liver, avoiding gross vascular, biliary structures and adipose tissue depots. Spectra, with and without water suppression, were obtained to calculate hepatic triglyceride content as a percentage relative to water (triglyceride/water×100). A calibration pulse sequence was implemented to evaluate the optimal water suppression pulse scaling factor. Individual coil signals were combined within Matlab using specifically written modules. The water-suppressed scans were constructively averaged, including frequency correction. Spectra were quantified using the Advanced Method of Accurate, Robust and Efficient Spectroscopic ([…]) fitting algorithm. Metabolite peaks (including lipid/triglycerides) were analyzed and prior knowledge was used for all peak locations by using soft constraints. All peaks were fitted using Lorentzian lineshapes.

liver fat [4] = experiment: Reduction of liver fat, general statement; type: in vivo
[5] = end of the 5 days, 393 mg/kg 3 times per day

Molecule | period of raised (R)-3-hydroxybutyrate concentrations ([1]; compared with ketone salts) | circulating levels of (R)-3-hydroxybutyrate in the blood [1] | uptake in the gut [1] | weight loss ([2]; 3 obese subjects) | weight loss ([2]; 7 lean subjects) | change in liver fat (liver fat [3]; 7 lean subjects, 393 mg/kg 3 times per day for 5 days) | liver fat (hepatic triglyceride relative to water) (liver fat [3]; beginning of the 5 days) | liver fat (hepatic triglyceride relative to water) (liver fat [3]; [5]) | liver triglyceride level (liver fat [3]; beginning of the 5 days) | liver triglyceride level (liver fat [3]; [5]) | effect on liver fat (liver fat [4])
C[C@@H](O)CCOC(=O)C[C@@H](C)O [(R)-3-hydroxybutyrate (R)-1,3-butanediol monoester] | longer period than ketone salts | high circulating levels | surprisingly high level of uptake in the gut | 1.3 kg | 1.3 kg | no loss of liver fat | 2.3% | 2.5% | 17.5% | 14.1% | reduce liver fat
(R)-3-hydroxybutyrate-glycerol partial ester |  | high circulating levels | surprisingly high level of uptake in the gut |  |  |  |  |  |  |  | reduce liver fat
